Structures can show the parent of a compound that is named as a salt.
Tested on: BLAB/c mouse
Assay: Inhibitory effect on skin swelling response in mouse allergic dermatitis model
Format: in vivo
Conditions: IgE anti-DNP sensitized mouse, DNFB-induced; 50 mg/kg orally before the induction; 24 hours after administration
Protocol: This method was carried out in accordance with the literature “Inflamm. Res., 47, 506-511 (1998)”.
To each BLAB/c mouse (female, 7 weeks old, JAPAN CHARLES RIVER), mouse IgE anti-DNP antibody (2.5 mg/kg, SEIKAGAKU CORPORATION) was intravenously administered to passively sensitize the mouse. Twenty four hours later, 20 μL of 0.38% 2,4-dinitrofluorobenzene (DNFB, SIGMA) dissolved in acetone:olive oil (4:1) was applied to the auricle of the sensitized mouse to induce inflammation. The thickness of the auricle was measured with time till 24 hours after the induction with Digimatic Indicator (Mitutoyo), and the ear swelling ratio was calculated according to the following equation: Ear Swelling Ratio (%)=(A−B)/B×100
A: Thickness of the right auricle after the induction
B: Thickness of the right auricle before the induction
Each test compound was dissolved in phosphate buffered saline and orally administered at a dose of 50 mg/kg before the induction.

In order of rising “Inhibition ratio of the ear swelling (swelling response of the auricle)” value:
1. COCCOc1ccc(/C=C/CC(NC(=O)c2ccc(CNS(=O)(=O)c3cc(Cl)cc(Cl)c3)cc2)C(=O)[O-])cc1.[Na+] (centres unmarked) [(XXII), (E)-2-(4-((3,5-dichlorophenylsulfonamide)methyl)benzamide)-5-(4-(2-methoxyethoxy)phenyl)pent-4-enoic acid sodium salt, reference compound]  2.3%
2. CC(C)N(c1ccc(/C=C/C[C@H](NC(=O)c2c(Cl)cccc2Cl)C(=O)O)cc1)c1ncccn1 [Example 83, (S,E)-2-(2,6-Dichlorobenzamido)-5-[4-(isopropyl-pyrimidin-2-ylamino)phenyl]pent-4-enoic acid]  57.4%
3. COC1(c2ccc(/C=C/C[C@H](NC(=O)c3c(Cl)cccc3Cl)C(=O)[O-])cc2)CCOCC1.[Na+] [Example 78, (S,E)-2-(2,6-Dichlorobenzamido)-5-[4-(4-methoxytetrahydropyran-4-yl)-phenyl]pent-4-enoic acid sodium salt]  62.5%
4. CC(C)N(c1ccc(/C=C/C[C@H](NC(=O)c2c(Cl)cccc2Cl)C(=O)[O-])cc1)c1ncccn1.[Na+] [Example 84, (S,E)-2-(2,6-Dichlorobenzamido)-5-[4-(isopropyl-pyrimidin-2-ylamino)phenyl]pent-4-enoic acid sodium salt]  66.9%
5. COC1(c2ccc(/C=C/CC(NC(=O)c3c(Cl)cccc3Cl)C(=O)O)cc2)CCOCC1 (centres unmarked) [Example 4, (E)-2-(2,6-Dichlorobenzamido)-5-[4-(4-methoxytetrahydropyran-4-yl)-phenyl]pent-4-enoic acid]  79.8%
6. CN(c1ccc(/C=C/CC(NC(=O)c2c(Cl)cccc2Cl)C(=O)O)cc1)c1ncccn1 (centres unmarked) [Example 22, (E)-2-(2,6-Dichlorobenzamido)-5-[4-(methyl-pyrimidin-2-ylamino)phenyl]pent-4-enoic acid]  84.7%
7. COC1(c2ccc(/C=C/C[C@H](NC(=O)c3c(Cl)cccc3Cl)C(=O)O)cc2)CCOCC1 [Example 77, (S,E)-2-(2,6-Dichlorobenzamido)-5-[4-(4-methoxytetrahydropyran-4-yl)-phenyl]pent-4-enoic acid]  85.8%
8. CN(c1ccc(/C=C/C[C@H](NC(=O)c2c(Cl)cccc2Cl)C(=O)O)cc1)c1ncccn1 [Example 80, (S,E)-2-(2,6-Dichlorobenzamido)-5-[4-(methyl-pyrimidin-2-ylamino)phenyl]pent-4-enoic acid]  86.3%
9. CCOC1(c2ccc(/C=C/CC(NC(=O)c3c(Cl)cccc3Cl)C(=O)O)cc2)CCOCC1 (centres unmarked) [Example 6, (E)-2-(2,6-Dichlorobenzamido)-5-[4-(4-ethoxytetrahydropyran-4-yl)-phenyl]pent-4-enoic acid]  91.2%
10. CN(c1ccc(/C=C/C[C@H](NC(=O)c2c(Cl)cccc2Cl)C(=O)[O-])cc1)c1ncccn1.[Na+] [Example 81, (S,E)-2-(2,6-Dichlorobenzamido)-5-[4-(methyl-pyrimidin-2-ylamino)phenyl]pent-4-enoic acid sodium salt]  97.9%
11. CC(C)N(c1ccc(/C=C/CC(NC(=O)c2c(Cl)cccc2Cl)C(=O)O)cc1)c1ncccn1 (centres unmarked) [Example 28, (E)-2-(2,6-Dichlorobenzamido)-5-[4-(isopropyl-pyrimidin-2-ylamino)phenyl]pent-4-enoic acid]  98.5%

Tested on: Jurkat cells
Assay: Inhibitory effect on leukocyte functions: adhesion of Jurkat cells to ligand-expressing cells or ligand-immobilized plate
Format: cell-based
Conditions: Homo sapiens, 0.5 h, read-out: IC50 (concentration at which the number of adherent cells is reduced by 50%)
Protocol: Jurkat cells which are a cell line originated from human acute T cell lymphoma were allowed to react with BCECF-AM at 37° C. for 20 minutes to fluorescently label the cells. The fluorescently labelled Jurkat cells were allowed to react with ligand-expressing cells or with a ligand-immobilized plate at 37° C. for 30 minutes. After removing non-adherent cells by washing, 1% NP40 was added to lyse the adherent cells, and fluorescence intensity was measured with Cytofluor 2300 (Millipore). From the obtained fluorescence intensity, the number of adherent cells was calculated. Each test compound was reacted with the Jurkat cells before the beginning of the adhesion reaction. In Table 18, the IC50 of each compound (i.e. the concentration at which the number of adherent cells is reduced by 50%) is shown.

In order of falling IC50:
1. CC(C)CN(c1ccc(/C=C/CC(NC(=O)c2c(Cl)cccc2Cl)C(=O)O)cc1)c1ncccn1 (centres unmarked) [Example 55, (E)-2-(2,6-Dichlorobenzamido)-5-[4-(isobutyl-pyrimidin-2-ylamino)phenyl]pent-4-enoic acid sodium salt]  420 nM
2. CCCCN(c1ccc(/C=C/CC(NC(=O)c2c(Cl)cccc2Cl)C(=O)O)cc1)c1ncccn1 (centres unmarked) [Example 37, (E)-5-(4-Butyl-pyrimidin-2-yl-amino)-phenyl]-2-(2,6-dichlorobenzamido)-pent-4-enoic acid sodium salt]  160 nM
3. O=C(NC(C/C=C/c1ccc(N(CC2CC2)c2ncccn2)cc1)C(=O)O)c1c(Cl)cccc1Cl (centres unmarked) [Example 53, (E)-5-[4-(Cyclopropylmethyl-pyrimidin-2-ylamino)phenyl]-2-(2,6-dichlorobenzamido)pent-4-enoic acid sodium salt]  120 nM

From patent publication US9162988B2, “Therapeutic or prophylactic agent for allergic dermatitis” (Toray Industries, Inc., priority 2007, dated 2015)
